From PMC5863483, “Low HLA binding of diabetes-associated CD8+ T-cell epitopes is increased by post translational modifications” (BMC Immunology, 2018)
Like-named read-outs stand apart in the source and are kept apart here. Where no end group is shown, it is not given here.

Assays:
HLA-A*02:01 = HLA-A*02:01 (Homo sapiens, UniProt P04439, D140Y/D185E/D98H/E176V/E277Q/G131W/G231S/I119V/I121R/I166T/I218V/L300P/L318F/N151K/N90K/P208A/P217A/Q86G/Q94H/R138H/R169H/T345S); test: HLA-peptide competition binding assay, A*02:01
HLA-B*18:01 = HLA-B*18:01 (Homo sapiens, UniProt P01889, A329T/A93T/A95T/C349S/D201E/D54G/D98Y/E176V/E187T/E204Q/E69T/K202T/Q94N/R155S/R180L/S121R/V306I/Y140S/Y195H/Y33H/Y91S); test: HLA-peptide competition binding assay, B*18:01; settings: read-out: IC50 nM, target assay B*18:01
HLA-B*08:01 = HLA-B*08:01 (Homo sapiens, UniProt P01889, A93T/A95T/D138N/E176V/E187T/K202T/Q94N/R180D/S35A/V36M/Y33D/Y91F); test: biochemical
Protocol: The 138 peptides were tested for their capacity to bind their respective HLA class I restricting allele(s) in classical competition assays based on the inhibition of the binding of high affinity radiolabeled ligands to purified major histocompatibility (MHC) molecules, as described in the Methods. In instances where the precise restriction was not available, binding to the most common representative subtype from the same allele family was assayed (e.g., A*02:01 for A02; B*07:02 for B7; A*03:01 for A03, etc.). For epitopes reported to be restricted by multiple alleles, each restriction is shown separately.
Peptide-MHC affinities were measured using classical competition assays based on the inhibition of binding of a high affinity radiolabeled ligand to purified HLA class I molecules, as previously described. Briefly, 0.1–1 nM of radiolabeled peptide is co-incubated at room temperature with purified MHC in the presence of a cocktail of protease inhibitors. Following a two-day incubation, MHC bound radioactivity is determined by capturing MHC/peptide complexes on W6/32 (anti-HLA class I) mAb coated Lumitrac 600 plates (Greiner Bio-one, Frickenhausen, Germany), and bound cpm measured using the TopCount (Packard Instrument Co., Meriden, CT) microscintillation counter. […] Under the conditions utilized, where [label] < [MHC] and IC50 ≥ [MHC], measured IC50 values are reasonable approximations of true Kd. Each competitor peptide is tested at six different concentrations covering a 100,000-fold range, and in three or more independent experiments. As a positive control, the unlabeled version of the radiolabeled probe is also tested in each experiment.

HLA-A*01:01 = HLA-A*01:01 (Homo sapiens, UniProt P04439, A114D/A174V/A182V/D101N/D185E/E176A/E190D/L180R/Q94H/R68K/S129P/T187R/V100A/V91M/W191G); test: HLA-peptide competition binding assay, A*01:01; settings: read-out: IC50 nM, target assay A*01:01
HLA-B*35:01 = HLA-B*35:01 (Homo sapiens, UniProt P01889, A329T/A93T/A95T/C349S/D201E/D98Y/E176V/E187L/E204Q/E69T/I218V/K202T/L119I/Q94N/R155S/R180L/S121R/S35A/S48A/T118I/V127L/V306I/V36M/Y140S/Y91F); test: HLA-peptide competition binding assay, B*35:01; settings: read-out: IC50 nM, target assay B*35:01
HLA-B*51:01 = HLA-B*51:01 (Homo sapiens, UniProt P01889, A329T/A93T/A95T/C349S/D138N/D201E/D98Y/E187L/E204Q/E69T/G107R/I218V/K202T/L105A/L119W/N104I/Q94N/R106L/R155S/R180L/S101N/S121T/S35A/S48A/V306I/V36M/Y195H/Y91F); test: HLA-peptide competition binding assay, B*51:01; settings: read-out: IC50 nM, target assay B*51:01
HLA-B*07:02 = HLA-B*07:02 (Homo sapiens, UniProt P01889); test: HLA-peptide competition binding assay, B*07:02; settings: read-out: IC50 nM, target assay B*07:02

Row | IC50 (HLA-B*35:01) | IC50 (HLA-B*51:01) | IC50 (HLA-B*07:02) | Sequence | IC50 (HLA-A*02:01; read-out: IC50 nM, target assay A*02:01) | IC50 (HLA-A*02:01; unmodified (WT) insulin peptide, competition binding assay, a dash indicates IC50 >40,000 nM, read-out: A*02:01 binding (IC50 nM) WT) | IC50 (HLA-B*18:01) | IC50 (HLA-B*08:01) | IC50 (HLA-A*01:01)
1 |  |  |  | VCGERGFFYT | > 40000 nM | > 40000 nM | 626 nM | > 40 µM | > 40000 nM
2 | > 40000 nM |  |  | TSEHSHFSL |  |  |  |  | 
3 | 12300 nM | 1160 nM | 610 nM | LPLLALLAL [LPLLALLAL] |  |  |  |  | 
